Among the data in US8063225B2, “Tricyclic compound derivatives useful in the treatment of neoplastic diseases, inflammatory disorders and immunomodulatory disorders” (Chembridge Corporation, priority 2006, dated 2011) are IC50 values, retold here.

In assay [1] the target is T1, Alk (Homo sapiens, UniProt Q9UM73).
T1 construct: 6×His- or GST-tagged kinase domain fragments of the corresponding RTKs expressed in baculovirus system; host or cells: baculovirus system
Briefly: Tyrosine kinase assay (Kinase-Glo or AlphaScreen), Alk. The conditions noted are these: biochemical tyrosine kinase assay. An outline of the steps:
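Kinase-Glo format: baculovirus-expressed tagged kinase domain, poly(Glu-Tyr), 10 μM ATP, pH 7.5 Tris, MgCl2/MnCl2, DTT; 60 min at 37° C; remaining ATP by luciferase luminescence. Other kinases run identically, enzyme titrated to ≤30% ATP consumption. IC50 by non-linear regression, quadruplicates.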

Assay [2] relates to HEK293 (human normal embryonic kidney). Description: Cell proliferation inhibition, Cell Titer-Glo, HEK293. Type of assay: cell-based. To be noted: cell proliferation assay, HEK293 cells, read-out: HEK 293 IC50. An outline of the steps:
(§1)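 Cells seeded at 2500-5000 per well with serially diluted compound for typically 3 days. Viable cells measured by ATP luminescence (Cell Titer-Glo); IC50 from proliferation-inhibition curves.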

The test system of assay [3] is K562. Briefly: Cell proliferation inhibition, Cell Titer-Glo, K562. In kind it is cell-based. To be noted: Homo sapiens; cell proliferation assay, K562 cells. An outline of the steps: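 Proliferation inhibition in human K562 cells was assessed in a standard 3-day assay. Cells (2500-5000 per well) in 384-well white, clear-bottomed plates received serial compound dilutions, then Cell Titer-Glo reagent was added per the manufacturer's protocol. Luminescence reflecting ATP content of metabolically active cells was counted in a multiwell reader, and IC50 curves were generated.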

Assay [4] deals with T2, TrkA (Homo sapiens, UniProt P04629).
T2 construct: 6×His- or GST-tagged kinase domain fragments of the corresponding RTKs expressed in baculovirus system; host or cells: baculovirus system
Description: Tyrosine kinase assay (Kinase-Glo or AlphaScreen), TrkA. To be noted: biochemical tyrosine kinase assay. Here is the method:
To determine inhibition of several tyrosine kinases, such as IGF1R, InsR, Alk, TrkA and Jak2, kinase assays are conducted using either Kinase-Glo (Promega) or AlphaScreen (PerkinElmer) kinase assay platforms. The Kinase-Glo Luminescent Kinase Assay is a homogeneous method for measuring kinase activity by determining the amount of ATP remaining after a kinase reaction. The luminescent signal is proportional to the amount of ATP and inversely proportional to the amount of kinase activity. Tyrosine kinase PT66 AlphaScreen Assay is a high-sensitivity homogeneous, anti-phosphotyrosine antibody-mediated luminescent proximity method measuring, incorporation of phosphate in synthetic poly(Glu-Tyr) substrate. The kinase preparations used consist of purified recombinant, 6×His- or GST-tagged kinase domain fragments of the corresponding RTKs expressed in baculovirus system.
The IGF1R tyrosine kinase is assayed in Kinase-Glo ATP depletion assay using the synthetic polymer poly(Glu-Tyr, 4:1) (Sigma Chemicals) as a phosphoacceptor substrate. Each reaction mixture consists of a total volume of 10 μl and contains 40 ng of the enzyme, 5 μg of poly(Glu-Tyr), 10 μM of ATP and variable concentrations of test compounds. The mixtures also contain 50 mM Tris-HCl, pH 7.5; 5 mM MgCl2; 5 mM MnCl2; 2 mM DTT and 0.01% Tween 20. The reaction mixtures are incubated at 37° C. for 60 minutes and residual concentration of ATP in the mixture is determined by adding luciferase-containing Kinase-Glo (Promega) development reagent and counting luminescence levels using Fusion Universal Microplate Analyzer (PerkinElmer). Tested compounds are dissolved in dimethyl sulfoxide to a stock concentration of 10 mM and are typically evaluated in the assay at eight concentrations in 1 nM to 20 μM range, each in quadruplicate. […] IC50 values are derived by non-linear regression analysis using Prism 3.0 software (Graphpad Software). Other tyrosine kinases are assayed according to the same protocol after titrating amount of the enzyme to provide optimal signal-to-noise ratio and no more than 30% of total ATP consumption in the reaction conditions used.
The IGF1R tyrosine kinase is assayed in Phosphotyrosine (PT66 or PT 100) AlphaScreen chemiluminescent assay (PerkinElmer) according to the manufacturerer's recommendations. Each kinase reaction mixture consists of a total volume of 15 μl and contains 0.1-1 ng of the enzyme, 7 ng of biotinylated poly(Glu-Tyr) (Cis-Bio), 10 μM of ATP and variable concentrations of test compounds. The mixtures also contain 50 mM Tris-HCl, pH 7.5; 5 mM MgCl2; 5 mM MnCl2; 2 mM DTT and 0.01% Tween 20. The reaction mixtures are incubated at room temperature for 30 minutes. Ten (10) μl of the mixture of […] and donor beads (as supplied by the manufacturer) is then added to the reaction and the incubation is continued for an additional 60 minutes.
A general note: In Kinase-Glo more light means more ATP remaining.

Assay [5] has as its system Karpas-299. Briefly: Cell proliferation inhibition, Cell Titer-Glo, Karpas-299. Type of assay: cell-based. To be noted: Homo sapiens; cell proliferation assay, Karpas-299 cells. In a few lines: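 In this standard 3-day proliferation assay, Karpas 299 cells plated at 2500-5000 cells per well in 384-well white, clear-bottomed plates were treated with compound dilutions. Cell Titer-Glo developing reagent was added following the manufacturer's protocol, luminescence reflecting ATP content was read on a multiwell plate reader, and IC50 curves were generated.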
A general note: Cellular ATP, detected with luciferase, serves as a proxy for viable cell number.

Assay [6] deals with CHO (chinese hamster ovary). Description: Cell proliferation inhibition, Cell Titer-Glo, CHO. Type of assay: cell-based. The conditions noted are these: Cricetulus griseus; cell proliferation assay, CHO cells. An outline of the steps:
as §1

T2 sequence (P04629 510-781 limits assumed, species assumed): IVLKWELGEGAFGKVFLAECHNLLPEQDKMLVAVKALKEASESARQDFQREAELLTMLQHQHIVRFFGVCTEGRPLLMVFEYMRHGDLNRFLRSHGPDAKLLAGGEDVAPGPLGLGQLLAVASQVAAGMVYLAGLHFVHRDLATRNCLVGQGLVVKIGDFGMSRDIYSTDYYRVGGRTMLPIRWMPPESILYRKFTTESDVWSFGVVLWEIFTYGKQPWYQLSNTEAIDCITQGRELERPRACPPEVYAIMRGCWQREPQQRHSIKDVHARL
T1 sequence (Q9UM73 1116-1392 limits assumed, species assumed): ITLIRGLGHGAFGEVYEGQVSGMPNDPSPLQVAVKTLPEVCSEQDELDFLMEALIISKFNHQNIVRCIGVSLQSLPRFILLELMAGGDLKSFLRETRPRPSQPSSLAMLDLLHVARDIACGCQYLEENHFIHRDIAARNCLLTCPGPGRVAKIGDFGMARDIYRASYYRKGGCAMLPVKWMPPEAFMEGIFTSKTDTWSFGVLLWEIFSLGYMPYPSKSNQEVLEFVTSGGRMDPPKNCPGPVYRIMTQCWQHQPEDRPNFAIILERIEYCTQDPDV

Usually IC50 stands for the concentration needed to halve the response being measured. As to `Cc1ccc(OCC(O)CNc2cc[nH]c(=O)c2-c2nc3cc4c(cc3[nH]2)C(=O)N(C2CCN(C)CC2)C4=O)c(C)c1` (stereo not shown) [compound 15], the 50% inhibitory concentration (IC50) was 5 to 15 µM in assay [1], 5 to 15 µM in assay [2], 0.5 to 5 µM in assay [3] and under 0.5 µM in assay [4].
In the case of `Cc1ccc2c(ccn2C[C@H](O)CNc2cc[nH]c(=O)c2-c2nc3cc4c(cc3[nH]2)C(=O)N(C2CCN(C)CC2)C4=O)c1` [compound 131], the IC50 in assay [1] is 5 to 15 µM; in assay [2], 0.5 to 5 µM; in assay [3] it was 5 to 15 µM; in assay [5], over 15 µM; in assay [4], under 0.5 µM; in assay [6] it was 5 to 15 µM.
